Where “and” joins values, the source holds several entries; their conditions need not be identical. Equal values may be shown once.
How the values were obtained:
mouse ear [1] = test: Inhibition of resiniferatoxin (RTX)-induced edema in a mouse ear model; assay type: in vivo; details: for ED50 for inhibition of RTX-induced edema: dose response curve
Description: A. Inhibition of Capsaicin-Induced Inflammation (Edema) of the Mouse Ear. Induction of mouse ear edema was based on known methods. Inoue, H., Nagata, N., and Koshihara, Y. (1993). Profile of capsaicin-induced mouse ear oedema as neurogenic inflammatory model: comparison with arachidonic acid-induced ear oedema. Br. J. Pharm 110:1614-20. […] CAP alone (250 μg/ear) or in combination with various dilutions of test compound are applied to both sides of the left ears (5 mice per treatment group) and acetone is applied to all right ears. After a 30 minute incubation, the mice are sacrificed, the ears removed, and bores taken and weighed. Edema is measured by subtracting the weight of the right ear (acetone control) from the weight of the left ear (treated).
B. Inhibition of Resiniferatoxin (RTX)-induced edema in a mouse ear model. Topsentin was also tested for its inhibitory activity against inflammation induced by the neurogenic inflammation producing compound, resiniferatoxin (RTX). Using a mouse ear model, the experimental procedure is substantially the same as that described for the capsaicin-induced inflammation assay (see section A of this Example, above).

mouse ear [2] = test: Inhibition of capsaicin-induced inflammation (edema) of the mouse ear; assay type: in vivo; details: for potency in inhibiting neurogenic inflammation compared with capsazepine: capsaicin-induced edema in mouse ears
Text: The assay employing mice (e.g., administration to the ear of the mouse) is routinely used by those skilled in the art and is accepted as indicative of anti-inflammatory activity in humans. This assay is described below.
A. Inhibition of Capsaicin-Induced Inflammation (Edema) of the Mouse Ear. Induction of mouse ear edema was based on known methods. Inoue, H., Nagata, N., and Koshihara, Y. (1993). Profile of capsaicin-induced mouse ear oedema as neurogenic inflammatory model: comparison with arachidonic acid-induced ear oedema. Br. J. Pharm 110:1614-20. Compounds to be tested for anti-neurogenic inflammatory activity are topically applied in acetone to the ears of mice in a solution that includes the edema-causing irritant, capsaicin (CAP). CAP alone (250 μg/ear) or in combination with various dilutions of test compound are applied to both sides of the left ears (5 mice per treatment group) and acetone is applied to all right ears. After a 30 minute incubation, the mice are sacrificed, the ears removed, and bores taken and weighed. Edema is measured by subtracting the weight of the right ear (acetone control) from the weight of the left ear (treated). Results are recorded as % decrease (inhibition) or % increase (potentiation) in edema relative to the control group edema.

[3] = Mus musculus, topical, 50 μg/ear, read-out: % Inh. of Edema
[4] = Mus musculus, topical, 3.12 μg/ear, read-out: % Inh. of Edema
[5] = Mus musculus, topical, 6.25 μg/ear, read-out: % Inh. of Edema
[6] = Mus musculus, topical, 12.5 μg/ear, read-out: % Inh. of Edema
[7] = Mus musculus, topical, 25 μg/ear, read-out: % Inh. of Edema
[8] = 3.12 μg/ear, listed as hamacanthin b
[9] = 50 μg/ear, listed as hamacanthin b

With `Brc1ccc2c(-c3c[nH]c(-c4c[nH]c5cc(Br)ccc45)n3)c[nH]c2c1` [Nortopsentin A] the “Mean difference” value (mouse ear [1]; 50 μg/ear) was -0.4 mg and the inhibition in vivo at 50 µg/ear (mouse ear [1]; [3]) was 100%.

For `CC(c1c[nH]c(N)n1)c1ccc(O)c2[nH]cc(-c3cnc(-c4c[nH]c5cc(Br)ccc45)c(=O)[nH]3)c12` (centres unmarked) [Dragmacidin d, Dragmacidin-d], the “Mean difference” value (mouse ear [1]; 50 μg/ear) was 1.4 mg and the inhibition in vivo at 50 µg/ear (mouse ear [1]; [3]) was 89.6%.

For `Oc1cc2c(cc1O)CN(C(=S)NCCc1ccc(Cl)cc1)CCC2` [Capsazepine, reference compound], the “% Inhibition of capsaicin-induced edema” value (mouse ear [2]; 500 μg/ear) was 33%, the “% Inhibition of capsaicin-induced edema” value (mouse ear [2]; 1000 μg/ear) was 52% and the “% Inhibition of capsaicin-induced edema” value (mouse ear [2]; 1500 μg/ear) was 76%.

In the case of `NCC(c1c[nH]c2cc(Br)ccc12)c1c[nH]c2cc(Br)ccc12` [2,2-bis(6-bromoindol-3-yl)ethyl amine], the “Mean difference” value (mouse ear [1]; 3.12 μg/ear) is reported as 11.9 mg, the “Mean difference” value (mouse ear [1]; 6.25 μg/ear) is reported as 13.2 mg and the “Mean difference” value (mouse ear [1]; 12.5 μg/ear) is reported as 5.8 mg. The “Mean difference” value (mouse ear [1]; 25 μg/ear) was 2.1 mg, the “inhibition of RTX-induced edema in certain animals” value (“inhibition … in certain animals” below) (mouse ear [1]; 50 μg on the ear) was roughly 100% and the “Mean difference” value (mouse ear [1]; 50 μg/ear) was 0.1 mg. For the same compound, the inhibition in vivo at 3.12 µg/ear (mouse ear [1]; [4]) was 6.8%, the inhibition in vivo at 6.25 µg/ear (mouse ear [1]; [5]) was 18% and the inhibition in vivo at 12.5 µg/ear (mouse ear [1]; [6]) was 86.8%. The inhibition in vivo at 25 µg/ear (mouse ear [1]; [7]) was 81.5%, the inhibition in vivo at 50 µg/ear (mouse ear [1]; [3]) was roughly 99% and the “ED50 for inhibition of RTX-induced edema” value (mouse ear [1]) was “about 18.1 μg/ear”.

For `O=C(c1nc(-c2c[nH]c3ccccc23)c[nH]1)c1c[nH]c2cc(O)ccc12` [Topsentin], the “% Inhibition of capsaicin-induced edema” value (mouse ear [2]; 100 μg/ear) was 28%, the “Inflammation (mg) ± SEM” value (mouse ear [2]; 100 μg/ear topical, capsaicin 250 μg/ear) was 4.8 ± 1.0 mg and the “% Inhibition of capsaicin-induced edema” value (mouse ear [2]; 100 μg/ear, listed as topsentin) was “more than 25%”. For the same compound, the “% Inhibition of capsaicin-induced edema” value (mouse ear [2]; 250 μg/ear) was 66%, the “% Inhibition of capsaicin-induced edema” value (mouse ear [2]; 500 μg/ear) was 74% and the “% Inhibition of capsaicin-induced edema” value (mouse ear [2]; 1000 μg/ear) was 90%. For the same compound, the “potency in inhibiting neurogenic inflammation compared with capsazepine” value (mouse ear [2]) was “greater potency in inhibiting neurogenic inflammation than capsazepine”, the “ED50 in inhibition of capsaicin-induced inflammation” value (mouse ear [2]; dose-response curve, FIG. 1) was “about 200 μg/ear” and the “percent inhibition of edema (up to)” value (mouse ear [2]; final concentration of about 1000 μM) was “approximately 90%”. For the same compound, the “Mean difference” value (mouse ear [1]; 5 μg/ear) was 12.3 mg, the “Mean difference” value (mouse ear [1]; 10 μg/ear) was 9.6 mg and the “Mean difference” value (mouse ear [1]; 25 μg/ear) was 8.3 mg. The “Mean difference” value (mouse ear [1]; 50 μg/ear) was 2.6 mg, the “inhibition … in certain animals” value (mouse ear [1]; 100 μg on the ear) was “about 100%” and the “Mean difference” value (mouse ear [1]; 100 μg/ear) was 1.3 mg. The inhibition in vivo at 5 µg/ear (mouse ear [1]; Mus musculus, topical, 5 μg/ear, read-out: % Inh. of Edema) was roughly 12%, the inhibition in vivo at 10 µg/ear (mouse ear [1]; Mus musculus, topical, 10 μg/ear, read-out: % Inh. of Edema) was 31% and the inhibition in vivo at 25 µg/ear (mouse ear [1]; [7]) was 41%. The inhibition in vivo at 50 µg/ear (mouse ear [1]; [3]) was 82%, the inhibition in vivo at 100 µg/ear (mouse ear [1]; Mus musculus, topical, 100 μg/ear, read-out: % Inh. of Edema) was roughly 91% and the “ED50 for inhibition of RTX-induced edema” value (mouse ear [1]) was “about 20 μg/ear”.

For `CS(=O)(=O)Oc1ccc2c(C(=O)c3nc(-c4c[nH]c5cc(Br)ccc45)c[nH]3)c[nH]c2c1` [o-mesylbromotopsentin, bromotopsentin-O-mesylate], the “Mean difference” value (mouse ear [1]; 3.12 μg/ear) was 9.2 mg, the “Mean difference” value (mouse ear [1]; 6.25 μg/ear) was 7.2 mg and the “Mean difference” value (mouse ear [1]; 12.5 μg/ear) was 8.3 mg. For the same compound, the “Mean difference” value (mouse ear [1]; 25 μg/ear) was 2.3 mg, the “inhibition … in certain animals” value (mouse ear [1]; 50 μg on the ear) was 70% and the “Mean difference” value (mouse ear [1]; 50 μg/ear) was 3 mg. For the same compound, the inhibition in vivo at 3.12 µg/ear (mouse ear [1]; [4]) was 8.9%, the inhibition in vivo at 6.25 µg/ear (mouse ear [1]; [5]) was 28% and the inhibition in vivo at 12.5 µg/ear (mouse ear [1]; [6]) was 86.8%. For the same compound, the inhibition in vivo at 25 µg/ear (mouse ear [1]; [7]) was 77.6%, the inhibition in vivo at 50 µg/ear (mouse ear [1]; [3]) was 70.3% and the “ED50 for inhibition of RTX-induced edema” value (mouse ear [1]) was “about 17 μg/ear”.

`O=C(C1=NC(c2c[nH]c3cc(Br)ccc23)CN1)c1c[nH]c2ccccc12` (centres unmarked) [4,5-dihydro-6"-deoxybromotopsentin] was tested, and the “Mean difference” value (mouse ear [1]; 50 μg/ear) was 3.3 mg and the inhibition in vivo at 50 µg/ear (mouse ear [1]; [3]) was 87.1%.

In the case of `O=C(c1nc(-c2c[nH]c3cc(Br)ccc23)c[nH]1)c1c[nH]c2cc(O)ccc12` [Bromotopsentin], the “% Inhibition of capsaicin-induced edema” value (mouse ear [2]; 500 μg/ear) is reported as 79% and the “potency in inhibiting neurogenic inflammation compared with capsazepine” value (mouse ear [2]) is reported as “greater potency in inhibiting neurogenic inflammation than capsazepine”.

For `Brc1ccc2c(-c3nc(-c4c[nH]c5ccccc45)c[nH]3)c[nH]c2c1` [Nortopsentin B], the “Mean difference” value (mouse ear [1]; 50 μg/ear) was 0.9 mg and the inhibition in vivo at 50 µg/ear (mouse ear [1]; [3]) was 91.2%.

With `O=C1NC[C@H](c2c[nH]c3cc(Br)ccc23)N=C1c1c[nH]c2cc(Br)ccc12` [Hamacanthin B] the “Mean difference” value (mouse ear [1]; 3.12 μg/ear) was 3.9 mg, the “% Inh. of Edema” value (mouse ear [1]; 3.12 μg/ear, listed as Hamacanthin b) was 68% and the “% Inh. of Edema” value (mouse ear [1]; [8]) was 68.8%. The “Difference (mg), left minus right ear, individual animal” value (“Difference (mg), left minus right ear” for short) (mouse ear [1]; [8]) was 4.4 mg and 6.9 mg and 1.5 mg and 1.2 mg and 5.3 mg, the “% Inh. of Edema” value (mouse ear [1]; 6.25 μg/ear) was 46.0% and the “Difference (mg), left minus right ear” value (mouse ear [1]; 6.25 μg/ear) was 6.9 mg and 7.4 mg and 7.0 mg and 8.4 mg and 5.4 mg. For the same compound, the “Mean difference” value (mouse ear [1]; 6.25 μg/ear) was 6.7 mg, the “% Inh. of Edema” value (mouse ear [1]; 12.5 μg/ear) was 86.8% and the “Difference (mg), left minus right ear” value (mouse ear [1]; 12.5 μg/ear) was 4.6 mg and 4.1 mg and 6.1 mg and 8.3 mg and 1.4 mg. The “Mean difference” value (mouse ear [1]; 12.5 μg/ear) was 4.9 mg, the “% Inh. of Edema” value (mouse ear [1]; 25 μg/ear) was 81.6% and the “Difference (mg), left minus right ear” value (mouse ear [1]; 25 μg/ear) was 2.3 mg and 4.2 mg and 2.0 mg and 1.0 mg and 1.9 mg. The “Mean difference” value (mouse ear [1]; 25 μg/ear) was 2.3 mg, the “inhibition … in certain animals” value (mouse ear [1]; 50 μg on the ear) was roughly 100% and the “Mean difference” value (mouse ear [1]; 50 μg/ear) was 0.4 mg. The “% Inh. of Edema” value (mouse ear [1]; 50 μg/ear, listed as Hamacanthin b) was “about 97%”, the “% Inh. of Edema” value (mouse ear [1]; [9]) was 96.9% and the “Difference (mg), left minus right ear” value (mouse ear [1]; [9]) was 0.2 mg and 0.0 mg and 1.4 mg and 0.1 mg. The “ED50 for inhibition of RTX-induced edema” value (mouse ear [1]) was “about 1.5 μg/ear”.

`Brc1ccc2c(-c3c[nH]c(-c4c[nH]c5ccccc45)n3)c[nH]c2c1` [Nortopsentin C] was tested, and the “Mean difference” value (mouse ear [1]; 3.12 μg/ear) was 9.3 mg, the “Mean difference” value (mouse ear [1]; 6.25 μg/ear) was 5.4 mg and the “Mean difference” value (mouse ear [1]; 12.5 μg/ear) was 1.3 mg. For the same compound, the “Mean difference” value (mouse ear [1]; 25 μg/ear) was 1.0 mg, the “inhibition … in certain animals” value (mouse ear [1]; 50 μg on the ear) was roughly 100% and the “Mean difference” value (mouse ear [1]; 50 μg/ear) was 0.2 mg. The inhibition in vivo at 3.12 µg/ear (mouse ear [1]; [4]) was 5.9%, the inhibition in vivo at 6.25 µg/ear (mouse ear [1]; [5]) was 45% and the inhibition in vivo at 12.5 µg/ear (mouse ear [1]; [6]) was 86.8%. For the same compound, the inhibition in vivo at 25 µg/ear (mouse ear [1]; [7]) was 90.2%, the inhibition in vivo at 50 µg/ear (mouse ear [1]; [3]) was roughly 98% and the “ED50 for inhibition of RTX-induced edema” value (mouse ear [1]) was “about 8 μg/ear”.
